The test system of test [1] is C2C12 cells. As to the kind of experiment: Western blot analysis of C2C12 myoblasts (TGF-β1 stimulation, halofuginone treatment). It is filed as cell-based, mouse. As for the experimental part: Specifically, C2C12 cells (CRL-1772) were purchased from the American Type Culture Collection (ATCC) and maintained in DMEM medium (Welgene) containing 10% (v/v) fetal bovine serum (FBS; Gibco) and 1% penicillin-streptomycin (P/S; Gibco) at 37° C. under 5% CO2 conditions. The C2C12 cells were seeded in 6-well plates at a density of 3×10^5 cells per well and allowed to adhere for 24 hours. Subsequently, the medium was replaced with serum-free medium after 24 hours, followed by stimulation with 5 ng/ml rhTGF-β1 (recombinant human TGF-β1; R&D Systems). After stimulation, the cells were treated with various concentrations (0 [control], or 1, 2.5, 5 [low dose], 10 [high dose], 20, 50, 100 ng/ml) of halofuginone (Sigma) in serum-free medium for 24 hours.
(§1) Specifically, the lumbar spinal cord or knee joint of the mouse of Example 6 was separated and immediately frozen at −80° C. Each lumbar spinal cord or knee joint was then homogenized and chemically treated to obtain cells. The chemically treated cells, the C2C12 cells of Example 1 or the fibroblasts of Example 5 were dissolved in a RIPA buffer (Thermo, MA, USA) with a protease inhibitor and a phosphatase inhibitor (Roche, IN, USA) and incubated on ice for 30 minutes. After centrifugation of the lysate at 13,000 rpm at 4° C. for 20 min, insoluble substances were removed. Protein concentrations were measured by BCA analysis (Pierce Biotechnology). Equal volumes of cell lysate were loaded onto SDS-PAGE gels for electrophoresis, and transferred onto nitrocellulose membranes (Amersham Protran 0.2 um NC, Amersham Pharmacia Biotech, Piscataway, NJ, USA). The membranes were then blocked with 5% (w/v) skimmilk in 1×TBST for 1 h at room temperature. After blocking, anti-RB-actin antibody (1:5000; Santa Cruz, cat #sc47778), anti-Smad2 antibody (1:1000; Cell Signaling, cat #5339), anti-p-Smad2 antibody (1:1000; Cell Signaling, cat #3108), anti-TGF-β1 antibody (1:1000; Santa Cruz, cat #sc130348), anti-α-SMA antibody (1:10000; abcam cat #ab7817), anti-MyoD antibody (1:1000; cat #sc377460), anti-collagen|antibody (1:1000; abcam cat #ab21286), anti-cleaved caspase-3 antibody (1:1000; Cell Signaling, cat #9661), anti-bax antibody (1:500; Santa Cruz, cat #sc493), anti-bcl2 antibody (1:1000; Novus Biologics, cat #NB100-56098), anti-ChAT antibody (1:1000; Millipore, cat #AB144) were treated and incubated overnight at 4° C. Subsequently, membranes were washed several times with 1×TBST and incubated with horseradish peroxidase-conjugated secondary antibodies (anti-mouse, rabbit or goat, 1:5000; GE Healthcare) in blocking buffer for 1 h at room temperature (RT). The membranes were then washed, briefly incubated with the SuperSignal West Pico Plus Chemical Substructure (Pierce Biotechnology) according to the manufacturer's procedure, and quantified with an image analyzer (Amersham Pharmacia Biotech, Piscataway, NJ, USA). β-actin was used as an internal control group. The concentration measurement of protein intensity was quantified using Image J (National Institutes of Health).
Specifically, after treating C2C12 cells with TGF-β1 for 24 hours as in Example 1, real-time qRT-PCR was performed in the same manner as in Example 11 to confirm TGF-β1, 2 and 3, α-SMA and MyoD mRNA expression (FIG. 2a), and Western blot analysis was performed in the same manner as in Example 12 to confirm autocrine expression of TGF-β1 and MyoD protein and α-SMA (FIG. 2b).
Specifically, C2C12 cells were treated with halofuginone after TGF-β1 stimulation or no stimulation in the same manner as described in Example 2, and cell viability analysis was performed through CCK-8 analysis (FIGS. 3a and 3b), and Western blot analysis was performed in the same manner as described in Example 12 to confirm autocrine expression of p-Smad2, Smad2, TGF-β1, MyoD, collagen I protein and α-SMA (FIG. 3c). […]
In general terms: In western blotting, separated proteins are transferred to a membrane and probed.

Test [2] concerns G93A mutant SOD1 transgenic mice. As to the kind of experiment: Western blot analysis of knee joint tissue in ALS animal model. The class given is in vivo, mouse. The settings on record: 120 days old; compared to DMSO non-TG mice. How it is done: As a control group, non-transgenic mice were injected intraperitoneally (i.p.) with vehicle (DMSO) in the same manner for the same period of time.
as §1
Specifically, halofuginone was administered to G93A mutant SOD1 mice in the same manner as described in Example 6, and ROM measurement of the knee joint was performed in the same manner as described in Example 10 (FIG. 8a). In addition, Western blot analysis was performed in the same manner as the method described in Example 12 using knee joint tissue to confirm p-Smad2, Smad2, TGF-β1, α-SMA, MyoD, and collagen I protein expression (FIG. 8b).

The mark [3] stands for this setting: halofuginone 5 ng/ml and 10 ng/ml, 24 h after TGF-β1 stimulation (FIG. 3c).

Each structure is given as a SMILES string.

The values below come from patent US20240390377A1, “COMPOSITION FOR THE PREVENTION OR TREATMENT OF NEURODEGENERATIVE OR MOTOR NEURON DISEASES COMPRISING HALOFUGINONE AS AN ACTIVE INGREDIENT” (CURAMYS CO., LTD., priority 2022, published 2024).

Turning to `O=C(C[C@H]1NCCC[C@@H]1O)Cn1cnc2cc(Br)c(Cl)cc2c1=O` (racemic) [halofuginone], in test [1] (setting [3]), the “decrease in MyoD protein level by TGF-β1 stimulation” value is listed as “significantly recovered”, the “increase in TGF-β1 protein level by TGF-β1 stimulation” value is “significantly reduced”, the “increase in collagen I protein level by TGF-β1 stimulation” value is “significantly reduced” and the “increase in p-Smad2/Smad2 ratio by TGF-β1 stimulation” value is given as “significantly reduced”. Moreover, the “increase in α-SMA protein level by TGF-β1 stimulation” value in test [1] (setting [3]) was “significantly reduced”. Also, the “TGF-β1, α-SMA, MyoD and collagen I protein expression, compared with the mRNA result” value in test [1] (low or high concentration halofuginone, 24 h after TGF-β1 stimulation (FIG. 4b)) was “the same”. In test [2], the “Col-1 expression level in knee joint tissue” value was “rather reduced”, the “MyoD expression level in knee joint tissue” value is on record as “preserved similarly”, the “TGF-β1 expression level in knee joint tissue” value is recorded as “preserved similarly” and the “p-Smad2/Smad2 ratio in knee joint tissue” value is “preserved similarly”. In addition, the “α-SMA expression level in knee joint tissue” value in test [2] is recorded as “preserved similarly”.
